The target in data set [1] is ATP-dependent translocase ABCB1 (Homo sapiens, UniProt P08183). Briefly: Inhibition of p-glycoprotein in human adriamycin-resistant MCF7 cells assessed as increase of adriamycin accumulation at 20 uM after 1 hr by LC-MS/MS analysis relative to control. Type of data set: cell-based. Conditions: mcf7, 1 h.
The target of another data set is Alpha-glucosidase MAL12 (Saccharomyces cerevisiae S288c, UniProt P53341). Briefly: Inhibition of yeast alpha-glucosidase using p-NPG as substrate.
Chain of Alpha-glucosidase MAL12 (P53341 whole entry): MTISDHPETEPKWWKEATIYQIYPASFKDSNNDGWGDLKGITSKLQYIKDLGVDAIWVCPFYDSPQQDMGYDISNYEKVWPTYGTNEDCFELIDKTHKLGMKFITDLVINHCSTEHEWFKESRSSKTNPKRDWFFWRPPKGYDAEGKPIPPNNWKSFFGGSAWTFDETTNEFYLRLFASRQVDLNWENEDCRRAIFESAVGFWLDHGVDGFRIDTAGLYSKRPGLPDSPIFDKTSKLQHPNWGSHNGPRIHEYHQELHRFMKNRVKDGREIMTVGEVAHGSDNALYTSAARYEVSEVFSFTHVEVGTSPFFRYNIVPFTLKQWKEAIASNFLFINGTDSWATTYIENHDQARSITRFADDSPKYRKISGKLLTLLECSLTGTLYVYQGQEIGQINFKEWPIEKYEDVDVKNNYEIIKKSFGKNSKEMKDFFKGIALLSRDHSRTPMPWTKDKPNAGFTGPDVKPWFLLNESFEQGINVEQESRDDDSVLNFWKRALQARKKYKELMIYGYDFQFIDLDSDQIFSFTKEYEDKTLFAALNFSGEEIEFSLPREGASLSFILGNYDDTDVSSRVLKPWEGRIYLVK

Chain of ATP-dependent translocase ABCB1 (P08183 whole entry): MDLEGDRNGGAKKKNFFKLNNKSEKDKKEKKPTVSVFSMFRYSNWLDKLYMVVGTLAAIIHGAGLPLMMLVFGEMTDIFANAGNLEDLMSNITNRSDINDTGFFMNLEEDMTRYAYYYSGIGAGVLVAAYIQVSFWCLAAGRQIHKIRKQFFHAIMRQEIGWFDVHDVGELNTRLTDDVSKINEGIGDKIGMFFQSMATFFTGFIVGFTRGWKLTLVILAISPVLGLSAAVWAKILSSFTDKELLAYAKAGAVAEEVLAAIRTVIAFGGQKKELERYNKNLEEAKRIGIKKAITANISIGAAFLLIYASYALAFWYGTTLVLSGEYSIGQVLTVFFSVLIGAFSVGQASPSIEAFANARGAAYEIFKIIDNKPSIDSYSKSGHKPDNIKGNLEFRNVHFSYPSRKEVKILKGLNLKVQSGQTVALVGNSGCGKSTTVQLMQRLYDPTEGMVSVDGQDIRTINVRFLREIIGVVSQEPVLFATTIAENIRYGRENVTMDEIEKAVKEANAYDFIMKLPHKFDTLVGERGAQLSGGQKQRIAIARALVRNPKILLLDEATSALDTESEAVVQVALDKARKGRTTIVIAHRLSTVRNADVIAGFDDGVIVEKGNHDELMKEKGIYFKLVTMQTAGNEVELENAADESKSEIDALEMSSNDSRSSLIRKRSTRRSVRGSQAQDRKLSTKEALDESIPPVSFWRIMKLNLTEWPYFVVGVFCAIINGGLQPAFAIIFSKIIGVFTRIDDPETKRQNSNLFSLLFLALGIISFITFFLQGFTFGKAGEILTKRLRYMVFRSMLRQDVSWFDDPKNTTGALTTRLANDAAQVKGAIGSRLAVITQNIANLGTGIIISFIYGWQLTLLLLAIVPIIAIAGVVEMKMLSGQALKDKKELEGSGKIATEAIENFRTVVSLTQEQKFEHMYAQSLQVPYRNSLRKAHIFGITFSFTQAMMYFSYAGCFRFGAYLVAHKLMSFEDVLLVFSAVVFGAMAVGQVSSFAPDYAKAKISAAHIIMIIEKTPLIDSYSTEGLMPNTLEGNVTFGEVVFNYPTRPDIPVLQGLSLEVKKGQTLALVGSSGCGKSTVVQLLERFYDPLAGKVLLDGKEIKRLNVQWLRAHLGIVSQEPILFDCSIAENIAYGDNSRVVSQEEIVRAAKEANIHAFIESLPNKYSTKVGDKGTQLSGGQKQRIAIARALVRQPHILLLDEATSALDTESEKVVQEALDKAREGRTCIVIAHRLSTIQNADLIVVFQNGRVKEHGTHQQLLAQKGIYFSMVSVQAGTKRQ

As a reminder, the IC50 is the concentration that inhibits the measured activity by half. Low values mean greater potency, high ones weaker potency. For `C/C(=C\CC[C@@H](C)[C@H]1CC[C@@]2(C)C3=C([C@@H](O)C[C@]12C)[C@@]1(C)CCC(=O)C(C)(C)[C@@H]1CC3=O)C(=O)O`, in data set [1], the Ratio came to 3. At Alpha-glucosidase MAL12, this compound came in with an IC50 of 119 µM. As for `CC1(C)C(=O)CC[C@]2(C)C3=C([C@@H](O)C[C@@H]12)[C@]1(C)C(=O)C[C@H]([C@]2(C)CCC(=O)O2)[C@@]1(C)[C@@H](O)C3=O`, in data set [1], the Ratio was found to be 3. Take `CC1(C)[C@@H](O)CC[C@]2(C)C3=C([C@@H](O)C[C@@H]12)[C@]1(C)C(=O)C[C@H]([C@]2(C)CCC(=O)O2)[C@@]1(C)[C@H](O)C3=O`: the IC50 at Alpha-glucosidase MAL12 stood at 41.7 µM. Turning to `CC1(C)[C@@H](O)CC[C@]2(C)C3=C([C@@H](O)C[C@@H]12)[C@]1(C)C(=O)C[C@H]([C@]2(C)CCC(=O)O2)[C@@]1(C)C(=O)C3=O`, the Ratio in data set [1] turned out to be 3. At Alpha-glucosidase MAL12, this compound registered a 50% inhibitory concentration (IC50) of 91.3 µM. Compound `C[C@H](C(=O)O)[C@H]1CC(=O)[C@@]2(C)C3=C(C(=O)C[C@]12C)[C@@]1(C)CCC(=O)C(C)(C)[C@@H]1CC3=O` gave an IC50 against Alpha-glucosidase MAL12 of 145 µM. Still for that read-out and setting: for `CC1(C)C(=O)CC[C@]2(C)C3=C(C(=O)C[C@@H]12)[C@]1(C)C(=O)C[C@H]([C@]2(C)CCC(=O)O2)[C@@]1(C)CC3=O` the value was 81.8 µM. Turning to `COc1ccc(CCN(C)CCCC(C#N)(c2ccc(OC)c(OC)c2)C(C)C)cc1OC` (stereo not given), the Ratio in data set [1] stood at 3. Still for that read-out and setting: the result for `COC(=O)CC[C@@H](C)[C@H]1CC(=O)[C@@]2(C)C3=C(C(=O)C[C@]12C)[C@@]1(C)CCC(=O)C(C)(C)[C@@H]1CC3=O` [METHYL LUCIDENATE F] reads 3.

The record behind these values is ChEMBL document CHEMBL3600285, “Inhibitory Effects of Highly Oxygenated Lanostane Derivatives from the Fungus Ganoderma lucidum on P-Glycoprotein and α-Glucosidase” (J Nat Prod, 2015).
